Test results reported in US20110009381A1, “SOLUBILIZED THIAZOLOPYRIDINES” (Sirtis Pharmaceuticals, Inc., priority 2007, published 2011).

The compounds below were run against T1, SIRT1 (Homo sapiens, UniProt Q96EB6) (assay: Mass spectrometry based assay to identify modulators of SIRT1 activity (deacetylation of p53-based acetylated peptide substrate)). Details: 10 nM SIRT1, 0.5 μM peptide substrate, 120 μM βNAD+, 25 minutes at 25° C.
T1 sequence (Q96EB6 1-747): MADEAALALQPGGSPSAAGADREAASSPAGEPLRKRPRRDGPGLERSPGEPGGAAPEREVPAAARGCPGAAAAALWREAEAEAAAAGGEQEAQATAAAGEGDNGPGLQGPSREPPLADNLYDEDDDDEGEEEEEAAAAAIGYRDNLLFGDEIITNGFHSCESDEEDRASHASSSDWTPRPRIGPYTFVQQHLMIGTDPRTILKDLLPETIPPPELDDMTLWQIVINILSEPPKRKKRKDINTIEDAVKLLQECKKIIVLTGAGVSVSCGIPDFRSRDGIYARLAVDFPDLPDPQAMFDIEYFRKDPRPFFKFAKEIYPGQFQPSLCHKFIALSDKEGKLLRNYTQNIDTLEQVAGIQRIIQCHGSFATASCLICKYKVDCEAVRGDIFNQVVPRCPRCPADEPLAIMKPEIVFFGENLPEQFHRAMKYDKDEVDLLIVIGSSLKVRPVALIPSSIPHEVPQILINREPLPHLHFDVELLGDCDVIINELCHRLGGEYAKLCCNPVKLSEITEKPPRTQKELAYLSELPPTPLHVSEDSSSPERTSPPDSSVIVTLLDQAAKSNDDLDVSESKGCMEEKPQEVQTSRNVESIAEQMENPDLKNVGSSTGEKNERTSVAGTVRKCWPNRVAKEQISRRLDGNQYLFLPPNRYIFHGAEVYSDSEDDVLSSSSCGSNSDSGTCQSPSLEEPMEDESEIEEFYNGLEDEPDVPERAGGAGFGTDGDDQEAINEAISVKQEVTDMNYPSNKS
Format: biochemical
Text: A mass spectrometry based assay was used to identify modulators of SIRT1 activity. The mass spectrometry based assay utilizes a peptide having 20 amino acid residues as follows: Ac-EE-K(biotin)-GQSTSSHSK(Ac)NleSTEG-K(5TMR)-EE-NH2 (SEQ ID NO: 1) wherein K(Ac) is an acetylated lysine residue and Nle is a norleucine. The peptide is labeled with the fluorophore 5TMR (excitation 540 nm/emission 580 nm) at the C-terminus. The sequence of the peptide substrate is based on p53 with several modifications. In addition, the methionine residue naturally present in the sequence was replaced with the norleucine because the methionine may be susceptible to oxidation during synthesis and purification.
The mass spectrometry assay is conducted as follows: 0.5 μM peptide substrate and 120 μM βNAD^+ is incubated with 10 nM SIRT1 for 25 minutes at 25° C. in a reaction buffer (50 mM Tris-acetate pH 8, 137 mM NaCl, 2.7 mM KCl, 1 mM MgCl2, 5 mM DTT, 0.05% BSA). Test compounds may be added to the reaction as described above. The SirT1 gene is cloned into a T7-promoter containing vector and transformed into BL21(DE3). After the 25 minute incubation with SIRT1, 10 μL of 10% formic acid is added to stop the reaction. Reactions are sealed and frozen for later mass spec analysis. Determination of the mass of the substrate peptide allows for precise determination of the degree of acetylation (i.e. starting material) as compared to deacetylated peptide (product).
A control for inhibition of sirtuin activity is conducted by adding 1 μL of 500 mM nicotinamide as a negative control at the start of the reaction (e.g., permits determination of maximum sirtuin inhibition). A control for activation of sirtuin activity is conducted using 10 nM of sirtuin protein, with 1 μL of DMSO in place of compound, to determine the amount of deacetylation of the substrate at a given timepoint within the linear range of the assay. This timepoint is the same as that used for test compounds and, within the linear range, the endpoint represents a change in velocity.
For the above assay, SIRT1 protein was expressed and purified as follows. The SirT1 gene was cloned into a T7-promoter containing vector and transformed into BL21(DE3). The protein was expressed by induction with 1 mM IPTG as an N-terminal His-tag fusion protein at 18° C. overnight and harvested at 30,000×g. Cells were lysed with lysozyme in lysis buffer (50 mM Tris-HCl, 2 mM Tris[2-carboxyethyl]phosphine (TCEP), 10 μM ZnCl2, 200 mM NaCl) and further treated with sonication for 10 min for complete lysis. The protein was purified over a Ni-NTA column (Amersham) and fractions containing pure protein were pooled, concentrated and run over a sizing column (Sephadex S200 26/60 global). The peak containing soluble protein was collected and run on an Ion-exchange column (MonoQ). Gradient elution (200 mM-500 mM NaCl) yielded pure protein. This protein was concentrated and dialyzed against dialysis buffer (20 mM Tris-HCl, 2 mM TCEP) overnight. The protein was aliquoted and frozen at −80° C. until further use.
Sirtuin modulating compounds that activated SIRT1 were identified using the assay described above and are shown below in Table 1. The EC1-5 values for the activating compounds are represented by A′ (EC1.5<250 nM), A (EC1.5≧250 nM and ≦1 uM), B (EC1.5>1 and ≦10 uM), or C (EC1.5>10 uM). The percent maximum fold activation is represented by A (Fold activation≧300%), B (Fold Activation≧150% and <300%), or C (Fold Activation<150%).

FOLD ACT. (percent maximum fold activation), C (Fold Activation<150%):
O=C(Nc1ccccc1-c1nc2cccnc2s1)c1cc(Cl)nc(-c2ccccc2)n1 [Compound 8]
CCOc1cc(C(=O)Nc2ccccc2-c2nc3cccnc3s2)nc(-c2ccccc2)n1 [Compound 18]
CC(C)CNc1cc(C(=O)Nc2ccccc2-c2nc3cccnc3s2)nc(-c2ccccc2)n1 [Compound 19]
O=C(Nc1ccccc1-c1nc2cccnc2s1)c1cc(NC2CCCC2)nc(-c2ccccc2)n1 [Compound 20]
O=C(Nc1ccccc1-c1nc2cccnc2s1)c1cc(N2CCCCC2)nc(-c2ccccc2)n1 [Compound 21]

FOLD ACT. (percent maximum fold activation), B (Fold Activation≧150% and <300%):
O=C(Nc1ccccc1-c1nc2cccnc2s1)c1cc(N2CCOCC2)nc(-c2ccccc2)n1 [Compound 2]
O=C(Nc1ccccc1-c1nc2cccnc2s1)c1cc(N2CCS(=O)(=O)CC2)nc(-c2ccccc2)n1 [Compound 16]
O=C(Nc1ccccc1-c1nc2ccncc2s1)c1cc(NCc2cccnc2)nc(-c2ccccc2)n1 [Compound 31]

FOLD ACT. (percent maximum fold activation), A (Fold activation≧300%):
O=C(Nc1ccccc1-c1nc2cccnc2s1)c1cc(N2CCNCC2)nc(-c2ccccc2)n1 [Compound 1]
COCCN1CCN(c2cc(C(=O)Nc3ccccc3-c3nc4cccnc4s3)nc(-c3ccccc3)n2)CC1 [Compound 3]
COCCN1CCN(c2cc(C(=O)Nc3ccccc3-c3nc4cccnc4s3)nc(Cl)n2)CC1 [Compound 4]
COCCN1CCN(c2cc(C(=O)Nc3ccccc3-c3nc4cccnc4s3)nc(OC)n2)CC1 [Compound 5]
O=C(Nc1ccccc1-c1nc2cccnc2s1)c1cc(OC2CNC2)cc(-c2ccccc2)n1 [Compound 6]
O=C(Nc1ccccc1-c1nc2cccnc2s1)c1cc(OCCN2CCS(=O)(=O)CC2)cc(-c2ccccc2)n1 [Compound 7]
CN(C)CCNc1cc(C(=O)Nc2ccccc2-c2nc3cccnc3s2)nc(-c2ccccc2)n1 [Compound 9]
O=C(Nc1ccccc1-c1nc2cccnc2s1)c1cc(CN2CCOCC2)nc(-c2ccccc2)n1 [Compound 10]
O=C(Nc1ccccc1-c1nc2cccnc2s1)c1cc(CN2CCCC2)nc(-c2ccccc2)n1 [Compound 11]
COCCN1CCN(CCOc2cc(C(=O)Nc3ccccc3-c3nc4cccnc4s3)nc(-c3ccccc3)c2)CC1 [Compound 12]
O=C(Nc1ccccc1-c1nc2cccnc2s1)c1cc(OCCN2CCOCC2)cc(-c2ccccc2)n1 [Compound 13]
O=C(Nc1ccccc1-c1nc2cccnc2s1)c1cc(OCCN2CCNCC2)cc(-c2ccccc2)n1 [Compound 14]
COCCNc1cc(C(=O)Nc2ccccc2-c2nc3cccnc3s2)nc(-c2ccccc2)n1 [Compound 15]
COC(=O)CNc1cc(C(=O)Nc2ccccc2-c2nc3cccnc3s2)nc(-c2ccccc2)n1 [Compound 17]
O=C(Nc1ccccc1-c1nc2ccncc2s1)c1cc(N2CCOCC2)nc(-c2ccccc2)n1 [Compound 22]
O=C(Nc1ccccc1-c1nc2ccncc2s1)c1cc(N2CCNCC2)nc(-c2ccccc2)n1 [Compound 23]
CC(C)N1CCN(c2cc(C(=O)Nc3ccccc3-c3nc4ccncc4s3)nc(-c3ccccc3)n2)CC1 [Compound 24]
COCCN1CCN(c2cc(C(=O)Nc3ccccc3-c3nc4ccncc4s3)nc(-c3ccccc3)n2)CC1 [Compound 25]
CN(C)CCNc1cc(C(=O)Nc2ccccc2-c2nc3cccnc3s2)ncn1 [Compound 26]
COCCNc1cc(C(=O)Nc2ccccc2-c2nc3ccncc3s2)nc(-c2ccccc2)n1 [Compound 27]
Cc1nc(NCCN(C)C)cc(C(=O)Nc2ccccc2-c2nc3cccnc3s2)n1 [Compound 28]
COCCN(C)c1cc(C(=O)Nc2ccccc2-c2nc3ccncc3s2)nc(-c2ccccc2)n1 [Compound 29]
O=C(Nc1ccccc1-c1nc2ccncc2s1)c1cc(NCCN2CCOCC2)nc(-c2ccccc2)n1 [Compound 30]

Same assay, conditions: SIRT1 activation; 10 nM SIRT1, 0.5 μM peptide substrate, 120 μM βNAD+, 25 minutes at 25° C.

EC1.5, B (EC1.5>1 and ≦10 uM):
O=C(Nc1ccccc1-c1nc2cccnc2s1)c1cc(CN2CCCC2)nc(-c2ccccc2)n1 [Compound 11]
CN(C)CCNc1cc(C(=O)Nc2ccccc2-c2nc3cccnc3s2)ncn1 [Compound 26]
Cc1nc(NCCN(C)C)cc(C(=O)Nc2ccccc2-c2nc3cccnc3s2)n1 [Compound 28]

EC1.5, A′ (EC1.5<250 nM):
O=C(Nc1ccccc1-c1nc2cccnc2s1)c1cc(N2CCNCC2)nc(-c2ccccc2)n1 [Compound 1]
O=C(Nc1ccccc1-c1nc2cccnc2s1)c1cc(N2CCOCC2)nc(-c2ccccc2)n1 [Compound 2]
COCCN1CCN(c2cc(C(=O)Nc3ccccc3-c3nc4cccnc4s3)nc(-c3ccccc3)n2)CC1 [Compound 3]
O=C(Nc1ccccc1-c1nc2cccnc2s1)c1cc(OCCN2CCS(=O)(=O)CC2)cc(-c2ccccc2)n1 [Compound 7]
CN(C)CCNc1cc(C(=O)Nc2ccccc2-c2nc3cccnc3s2)nc(-c2ccccc2)n1 [Compound 9]
COCCN1CCN(CCOc2cc(C(=O)Nc3ccccc3-c3nc4cccnc4s3)nc(-c3ccccc3)c2)CC1 [Compound 12]
O=C(Nc1ccccc1-c1nc2cccnc2s1)c1cc(OCCN2CCNCC2)cc(-c2ccccc2)n1 [Compound 14]
O=C(Nc1ccccc1-c1nc2ccncc2s1)c1cc(N2CCNCC2)nc(-c2ccccc2)n1 [Compound 23]
CC(C)N1CCN(c2cc(C(=O)Nc3ccccc3-c3nc4ccncc4s3)nc(-c3ccccc3)n2)CC1 [Compound 24]
COCCN1CCN(c2cc(C(=O)Nc3ccccc3-c3nc4ccncc4s3)nc(-c3ccccc3)n2)CC1 [Compound 25]
COCCN(C)c1cc(C(=O)Nc2ccccc2-c2nc3ccncc3s2)nc(-c2ccccc2)n1 [Compound 29]

EC1.5, C (EC1.5>10 uM):
O=C(Nc1ccccc1-c1nc2cccnc2s1)c1cc(Cl)nc(-c2ccccc2)n1 [Compound 8]
CCOc1cc(C(=O)Nc2ccccc2-c2nc3cccnc3s2)nc(-c2ccccc2)n1 [Compound 18]
CC(C)CNc1cc(C(=O)Nc2ccccc2-c2nc3cccnc3s2)nc(-c2ccccc2)n1 [Compound 19]
O=C(Nc1ccccc1-c1nc2cccnc2s1)c1cc(NC2CCCC2)nc(-c2ccccc2)n1 [Compound 20]
O=C(Nc1ccccc1-c1nc2cccnc2s1)c1cc(N2CCCCC2)nc(-c2ccccc2)n1 [Compound 21]

EC1.5, A (EC1.5≧250 nM and ≦1 uM):
COCCN1CCN(c2cc(C(=O)Nc3ccccc3-c3nc4cccnc4s3)nc(Cl)n2)CC1 [Compound 4]
COCCN1CCN(c2cc(C(=O)Nc3ccccc3-c3nc4cccnc4s3)nc(OC)n2)CC1 [Compound 5]
O=C(Nc1ccccc1-c1nc2cccnc2s1)c1cc(OC2CNC2)cc(-c2ccccc2)n1 [Compound 6]
O=C(Nc1ccccc1-c1nc2cccnc2s1)c1cc(CN2CCOCC2)nc(-c2ccccc2)n1 [Compound 10]
O=C(Nc1ccccc1-c1nc2cccnc2s1)c1cc(OCCN2CCOCC2)cc(-c2ccccc2)n1 [Compound 13]
COCCNc1cc(C(=O)Nc2ccccc2-c2nc3cccnc3s2)nc(-c2ccccc2)n1 [Compound 15]
O=C(Nc1ccccc1-c1nc2cccnc2s1)c1cc(N2CCS(=O)(=O)CC2)nc(-c2ccccc2)n1 [Compound 16]
COC(=O)CNc1cc(C(=O)Nc2ccccc2-c2nc3cccnc3s2)nc(-c2ccccc2)n1 [Compound 17]
O=C(Nc1ccccc1-c1nc2ccncc2s1)c1cc(N2CCOCC2)nc(-c2ccccc2)n1 [Compound 22]
COCCNc1cc(C(=O)Nc2ccccc2-c2nc3ccncc3s2)nc(-c2ccccc2)n1 [Compound 27]
O=C(Nc1ccccc1-c1nc2ccncc2s1)c1cc(NCCN2CCOCC2)nc(-c2ccccc2)n1 [Compound 30]
O=C(Nc1ccccc1-c1nc2ccncc2s1)c1cc(NCc2cccnc2)nc(-c2ccccc2)n1 [Compound 31]
